25 molecules from US7348347B2, “Substituted 4,5,6,7-tetrahydrobenzthiazol-2-ylamine compounds” (Gruenenthal GmbH, priority 2004, dated 2008) can be followed below.

T1 sequence (Q63380 1-617): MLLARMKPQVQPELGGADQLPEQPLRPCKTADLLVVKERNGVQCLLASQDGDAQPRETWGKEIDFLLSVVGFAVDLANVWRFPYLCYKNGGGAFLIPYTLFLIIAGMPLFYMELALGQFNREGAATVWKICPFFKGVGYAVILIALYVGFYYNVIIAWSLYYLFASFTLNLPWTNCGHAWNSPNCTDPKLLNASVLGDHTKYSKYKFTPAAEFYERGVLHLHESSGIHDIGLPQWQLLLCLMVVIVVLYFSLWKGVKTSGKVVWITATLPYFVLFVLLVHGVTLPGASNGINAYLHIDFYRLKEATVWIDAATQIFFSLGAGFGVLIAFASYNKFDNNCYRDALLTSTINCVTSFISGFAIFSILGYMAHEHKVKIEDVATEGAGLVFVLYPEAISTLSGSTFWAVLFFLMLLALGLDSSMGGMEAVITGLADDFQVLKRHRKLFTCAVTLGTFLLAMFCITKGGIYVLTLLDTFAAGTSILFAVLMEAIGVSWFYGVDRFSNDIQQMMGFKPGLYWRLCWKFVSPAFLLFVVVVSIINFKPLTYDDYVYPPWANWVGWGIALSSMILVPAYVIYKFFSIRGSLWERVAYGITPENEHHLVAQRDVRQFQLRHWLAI
T2 sequence (P31652 whole entry): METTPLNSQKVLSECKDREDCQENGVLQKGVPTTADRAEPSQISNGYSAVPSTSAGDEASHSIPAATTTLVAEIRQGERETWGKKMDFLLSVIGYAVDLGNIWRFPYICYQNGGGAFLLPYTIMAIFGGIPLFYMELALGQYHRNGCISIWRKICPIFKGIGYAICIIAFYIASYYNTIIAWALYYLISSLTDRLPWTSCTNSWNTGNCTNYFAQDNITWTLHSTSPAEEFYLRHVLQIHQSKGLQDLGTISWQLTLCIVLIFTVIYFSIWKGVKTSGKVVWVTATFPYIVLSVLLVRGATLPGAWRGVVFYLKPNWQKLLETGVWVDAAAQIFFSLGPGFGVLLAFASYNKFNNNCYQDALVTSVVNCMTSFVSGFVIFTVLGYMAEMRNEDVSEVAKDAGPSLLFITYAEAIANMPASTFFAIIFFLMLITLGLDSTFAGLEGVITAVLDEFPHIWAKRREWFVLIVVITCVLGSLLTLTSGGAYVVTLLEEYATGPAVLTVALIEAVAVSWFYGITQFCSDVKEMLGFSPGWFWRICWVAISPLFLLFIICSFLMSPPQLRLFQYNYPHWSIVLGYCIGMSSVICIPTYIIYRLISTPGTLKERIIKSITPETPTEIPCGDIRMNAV

The first test addresses T1, NA transporter (Rattus norvegicus, UniProt Q63380).
T1 construct: from tissue; host or cells: rat brain synaptosomes (P2 fraction) from hypothalamus
Briefly: Inhibition of noradrenaline uptake in rat brain synaptosomes. Format: biochemical. Particulars: 10 μM; rat synaptosomes (hypothalamus), [3H]-NA. The method, then:
II. […] For in vitro studies, synaptosomes of rat brain areas are freshly isolated, as described in the article “The isolation of nerve endings from brain” by E. G. Gray and […]. Anatomy 96, pages 79-88, 1962. The relevant literature reference is enclosed herein by reference and is to be regarded as part of the disclosure. […] The homogenate is centrifuged at 4° C. for 10 minutes at 1000 g. […] The respective uptake was measured in a 96 well microtiter plate. The volume was 250 μL and the incubation was carried out at room temperature (ca 20-25° C.) under a blanket of oxygen. […] The 96 samples through were then filtered through a Unifilter GF/B® microtiter plate (Packard) and washed with 200 mL of incubated buffer with the aid of a “Brabdel Cell-Harvester MPXRI 96T”. The Unifilter GF/B plate was dried at 55° C. over a period of 1 h. The plate was then sealed with a back seal® (Packard) and there were then added 35 μL of scintillant fluid per well (Ultima Gold, Packard). Following sealing with a top seal® (Packard) and following adjustment of the equilibrium (approximately over a period of 5 h), the radioactivity is determined in a 1450 Microbeta® (Wallac). […] The amount of protein used in the above determination corresponded to the values known from the literature, such as is described in “Protein measurement with the folin phenol reagent”, Lowry et al., J. Biol. Chem., 193, 265-275, 1951. A detailed description of the method is disclosed in the literature, for example, in […], and B. […] The relevant literature references are incorporated herein by reference and are to be regarded as part of the disclosure.
Take `CC(C(=O)Nc1nc2c(s1)CCCC2C(=O)NC1CCN(Cc2ccc(Oc3ccccc3)cc2)C1)c1ccccc1` (stereo not drawn) [Example 15, 2-(2-Phenylpropionylamino)-4,5,6,7-tetrahydrobenzthiazol-4-carboxylic acid[1-(4-phenoxybenzyl)pyrrolidin-3-yl]amide]: the “% Inhibition of NA uptake [10 μM]” value stood at 91%. As for `CC(C(=O)Nc1nc2c(s1)CCCC2C(=O)NCC1CCN(Cc2ccccc2OCc2ccccc2)C1)c1ccccc1` (stereo not drawn) [Example 36, 2-(2-Phenylpropionylamino)-4,5,6,7-tetrahydrobenzthiazol-4-carboxylic acid[1-(2-benzyloxybenzyl)pyrrolidin-3-yl]methylamide], the “% Inhibition of NA uptake [10 μM]” value came out at 62%.

On to `N#Cc1ccccc1N1CCN(C(=O)C2CCCc3sc(NC(=O)c4ccco4)nc32)CC1` (stereo not drawn) [Example 47, Furan-2-carboxylic acid{4-[4-(2-cyan-phenyl)piperazin-1-carbonyl]-4,5,6,7-tetrahydrobenzthiazol-2-yl]-amide], for which the “% Inhibition of NA uptake [10 μM]” value stood at 47%. As to `CCCCCC(=O)Nc1nc2c(s1)CCCC2C(=O)N1CCN(c2ccccc2F)CC1` (stereo not drawn) [Example 52, Hexanoic acid{4-[4-(2-fluorophenyl)piperazin-1-carbonyl]-4,5,6,7-tetrahydrobenzthiazol-2-yl}amide], the “% Inhibition of NA uptake [10 μM]” value is 72%.

For the molecule `N#Cc1ccccc1N1CCN(C(=O)C2CCCc3sc(NC(=O)CCc4ccccc4)nc32)CC1` (stereo not drawn) [Example 77, N-{4-[4-(2-Cyan-phenyl)piperazin-1-carbonyl]-4,5,6,7-tetrahydrobenzthiazol-2-yl}-3-phenylpropionamide], the “% Inhibition of NA uptake [10 μM]” value worked out at 44%.

The test is the same for the next values; noted with them: 10 μM; rat synaptosomes (hypothalamus), [3H]-NA; read-out: % Inhibition of NA uptake [10 μM].
What is called inhibition is the change of the read-out against control, counted positive when it falls. Consider `CC(C(=O)Nc1nc2c(s1)CCCC2C(=O)NCCCN(C)C)c1ccccc1` (stereo not drawn) [Example 3, 2-(2-Phenylpropionylamino)-4,5,6,7-tetrahydrobenzthiazol-4-carboxylic acid (3-dimethylaminopropyl)amide], for which the inhibition at 10 µM came out at 65%.

On to `COc1ccc(N2CCN(C(=O)C3CCCc4sc(NC(=O)c5ccccc5)nc43)CC2C)cc1` (stereo not drawn) [Example 7, N-{4-[4-(4-Methoxyphenyl)-3-methylpiperazin-1-carbonyl]-4,5,6,7-tetrahydrobenzthiazol-2-yl]-benzamide], for which the inhibition at 10 µM was 48%. For the molecule `O=C(C=Cc1ccco1)Nc1nc2c(s1)CCCC2C(=O)N1CCN(Cc2ccsc2)CC1` (stereo not drawn) [Example 11, 3-Furan-2-yl-N-[4-(4-thiophen-3-ylmethylpiperazin-1-carbonyl)-4,5,6,7-tetrahydrobenzthiazol-2-yl]acrylamide], the inhibition at 10 µM is 57%. Still for that read-out and setting: the value for `O=C(Nc1nc2c(s1)CCCC2C(=O)NCCN1CCCCCC1)c1ccoc1` (stereo not drawn) [Example 16, 2-[(Furan-3-carbonyl)amino]-4,5,6,7-tetrahydrobenzthiazol-4-carboxylic acid (2-azepan-1-ylethyl)amide] was 88%. Still for that read-out and setting: the value for `CC(C(=O)Nc1nc2c(s1)CCCC2C(=O)NCCN(C)C)c1ccccc1` (stereo not drawn) [Example 19, 2-(2-Phenylpropionylamino)-4,5,6,7-tetrahydrobenzthiazol-4-carboxylic acid (2-dimethylaminoethyl)amide] was 71%; that for `CCN(CC)CCNC(=O)C1CCCc2sc(NC(=O)CCc3ccccc3)nc21` (stereo not drawn) [Example 38, 2-(3-Phenylpropionylamino)-4,5,6,7-tetrahydrobenzthiazol-4-carboxylic acid (2-diethylaminoethyl)amide] was 42%. Same read-out and setting: next, `CN(C(=O)C1CCCc2sc(NC(=O)COc3ccccc3)nc21)C1CCN(Cc2ccccc2C(F)(F)F)C1` (stereo not drawn) [Example 54, 2-(2-Phenoxyacetylamino)-4,5,6,7-tetrahydrobenzthiazol-4-carboxylic acid methyl-[1-(2-trifluoromethylbenzyl)pyrrolidin-3-yl]amide]: 44%; `COc1ccccc1CC(=O)Nc1nc2c(s1)CCCC2C(=O)NCC1CCN(Cc2cc3ccccc3o2)C1` (stereo not drawn) [Example 56, 2-[2-(2-Methoxyphenyl)acetylamino]-4,5,6,7-tetrahydrobenzthiazol-4-carboxylic acid (1-benzofuran-2-ylmethylpyrrolidin-3-yl)methylamide]: 49%; `CN(C)c1ccc(CNC(=O)C2CCCc3sc(NC(=O)c4ccco4)nc32)cc1` (stereo not drawn) [Example 58, 2-[(Furan-2-carbonyl)amino]-4,5,6,7-tetrahydrobenzthiazol-4-carboxylic acid 4-dimethylaminobenzylamide]: 72%. Turning to `COc1ccc(N2CCN(C(=O)C3CCCc4sc(NC(=O)C(C)c5ccccc5)nc43)CC2C)cc1` (stereo not drawn) [Example 60, N-{4-[4-(4-Methoxyphenyl)-3-methylpiperazin-1-carbonyl]-4,5,6,7-tetrahydrobenzthiazol-2-yl}-2-phenylpropionamide], the inhibition at 10 µM turned out to be 41%.

Turning to `CC(c1ccccc1)N1CCN(C(=O)C2CCCc3sc(NC(=O)COc4ccccc4)nc32)CC1` (stereo not drawn) [Example 66, 2-Phenoxy-N-{4-[4-(1-phenylethyl)piperazin-1-carbonyl]-4,5,6,7-tetrahydrobenzthiazol-2-yl}acetamide], the inhibition at 10 µM turned out to be 48%.

As to `COc1ccc2ccccc2c1CN1CCN(C(=O)C2CCCc3sc(NC(=O)CC(C)(C)C)nc32)CC1` (stereo not drawn) [Example 79, N-{4-[4-(2-Methoxynaphthalene-1-ylmethyl)piperazin-1-carbonyl]-4,5,6,7-tetrahydrobenzthiazol-2-yl}-3,3-dimethylbutyramide], the inhibition at 10 µM stood at 71%.

Another test has as its target T2, 5-HT uptake (Rattus norvegicus, UniProt P31652).
T2 construct: from tissue; host or cells: rat brain synaptosomes (P2 fraction) from marrow (medulla) and pons
Briefly: Inhibition of 5-HT uptake in rat brain synaptosomes. Format: biochemical. To be noted: rat synaptosomes (medulla and pons), [3H]-5-HT. The method, then: The relevant literature reference is enclosed herein by reference and is to be regarded as part of the disclosure.
The homogenate is centrifuged at 4° C. for 10 minutes at 1000 g. Following subsequent centrifugation at 17,000 g for 55 minutes, the synaptosomes (P2 fraction) are obtained, which are then resuspended in 0.32 M […] (0.5 mL/100 mg of the original weight).
The respective uptake was measured in a 96 well microtiter plate. The volume was 250 μL and the incubation was carried out at room temperature (ca 20-25° C.) under a blanket of oxygen.
The 96 samples through were then filtered through a Unifilter GF/B® microtiter plate (Packard) and washed with 200 mL of incubated buffer with the aid of a “Brabdel Cell-Harvester MPXRI 96T”. The Unifilter GF/B plate was dried at 55° C. over a period of 1 h. The plate was then sealed with a back seal® (Packard) and there were then added 35 μL of scintillant fluid per well (Ultima Gold, Packard).
A detailed description of the method is disclosed in the literature, for example, in M. Ch.
The molecule `CC(C(=O)Nc1nc2c(s1)CCCC2C(=O)NCCCN(C)C)c1ccccc1` (stereo not drawn) [Example 3, 2-(2-Phenylpropionylamino)-4,5,6,7-tetrahydrobenzthiazol-4-carboxylic acid (3-dimethylaminopropyl)amide] yielded an inhibition at 10 µM of 61%. Same read-out and setting: next, `COc1ccc(N2CCN(C(=O)C3CCCc4sc(NC(=O)c5ccccc5)nc43)CC2C)cc1` (stereo not drawn) [Example 7, N-{4-[4-(4-Methoxyphenyl)-3-methylpiperazin-1-carbonyl]-4,5,6,7-tetrahydrobenzthiazol-2-yl]-benzamide]: 51%; `O=C(Cc1cc(F)cc(F)c1)Nc1nc2c(s1)CCCC2C(=O)N1CCN(c2cccc(C(F)(F)F)c2)CC1` (stereo not drawn) [Example 74, 2-(3,5-Difluorophenyl)-N-{4-[4-(3-trifluoromethylphenyl)piperazin-1-carbonyl]-4,5,6,7-tetrahydrobenzthiazol-2-yl}acetamide]: 82%.

With `O=C(C=Cc1ccco1)Nc1nc2c(s1)CCCC2C(=O)N1CCN(c2cccc(C(F)(F)F)c2)CC1` (stereo not drawn) [Example 76, 3-Furan-2-yl-N-{4-[4-(3-trifluoromethylphenyl)piperazin-1-carbonyl]-4,5,6,7-tetrahydrobenzthiazol-2-yl}acrylamide], the inhibition at 10 µM was determined as 62%. For the molecule `CCOc1cc(N2CCOCC2)c(OCC)cc1NC(=O)C1CCCc2sc(NC(=O)CC(C)(C)C)nc21` (stereo not drawn) [Example 80, 2-(3,3-Dimethylbutyrylamino)-4,5,6,7-tetrahydrobenzthiazol-4-carboxylic acid (2,5-diethoxy-4-morpholin-4-ylphenyl)amide], the inhibition at 10 µM stood at 52%.

In turn, `O=C(Cc1cc(F)cc(F)c1)Nc1nc2c(s1)CCCC2C(=O)N1CCN(C(c2ccccc2)c2ccccc2)CC1` (stereo not drawn) [Example 83, N-[4-(4-Benzhydrylpiperazin-1-carbonyl)-4,5,6,7-tetrahydrobenzthiazol-2-yl]-2-(3,5-difluorophenyl)acetamide] showed an inhibition at 10 µM of 44%. Still for that read-out and setting: next, `O=C(Cc1cccs1)Nc1nc2c(s1)CCCC2C(=O)N1CCN(C(c2ccccc2)c2ccccc2)CC1` (stereo not drawn) [Example 84, N-[4-(4-Benzhydrylpiperazin-1-carbonyl)-4,5,6,7-tetrahydrobenzthiazol-2-yl]-2-thiophen-2-ylacetamide]: 53%. `CCOc1ccccc1C(=O)Nc1nc2c(s1)CCCC2C(=O)N1CCN(c2ccccc2Cl)CC1` (stereo not drawn) [Example 85, N-{4-[4-(2-Chlorophenyl)piperazin-1-carbonyl]-4,5,6,7-tetrahydrobenzthiazol-2-yl}-2-ethoxybenzamide] had an inhibition at 10 µM of 48%.

`CC(C)(C)CC(=O)Nc1nc2c(s1)CCCC2C(=O)N1CCN(c2ccc(C(F)(F)F)cn2)CC1` (stereo not drawn) [Example 86, 3,3-Dimethyl-N-{4-[4-(5-trifluoromethylpyridin-2-yl)piperazin-1-carbonyl]-4,5,6,7-tetrahydrobenzthiazol-2-yl}butyramide]: 10 µM produced 54% inhibition. Turning to `O=C(CC1CCCCC1)Nc1nc2c(s1)CCCC2C(=O)N1CCN(C(c2ccccc2)c2ccccc2)CC1` (stereo not drawn) [Example 88, N-[4-(4-Benzhydrylpiperazin-1-carbonyl)-4,5,6,7-tetrahydrobenzthiazol-2-yl]-2-cyclohexylacetamide], the inhibition at 10 µM turned out to be 41%.
